From publication PMC7419507, “In vitro Cas9-assisted editing of modular polyketide synthase genes to produce desired natural product derivatives” (Nature Communications, 2020)
Several values for one entry are separate records, joined by “and”; a condition that tells them apart may be missing. Equal entries are not always repeated.

Legend:
[1] = Cytotoxicity assay (CellTiter-Glo, 72 h), Jurkat; format: cell-based; conditions: human, Jurkat cells (T lymphoma), raw data (replicates)
Procedure, shortened: (§1)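 Cells were seeded at 1000 cells/well and allowed 4 h at 37 °C, 5% CO2 before 2-fold compound dilutions in DMSO were added (0.5% final DMSO). After 72 h exposure, viability was read by CellTiter-Glo luminescence.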

T lymphoma Jurkat cells = assay: Cytotoxicity assay (CellTiter-Glo, 72 h), Jurkat; format: cell-based; conditions: raw data (replicates)
Procedure, shortened: as §1

FKBP12 and mTOR = target: T1, FKBP12 and mTOR (Homo sapiens, UniProt P42345+P62942); assay: Fluoppi analysis: induction of FKBP12-mTOR complex formation in transfected HeLa cells; format: cell-based; conditions: for Foci intensity: raw data, one replicate per line
T1 construct: host or cells: HeLa cells
T1 sequence (P42345 2025-2114 limits assumed): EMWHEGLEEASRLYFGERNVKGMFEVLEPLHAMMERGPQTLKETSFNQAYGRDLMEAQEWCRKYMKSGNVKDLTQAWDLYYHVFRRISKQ
T1 sequence (P62942 whole entry): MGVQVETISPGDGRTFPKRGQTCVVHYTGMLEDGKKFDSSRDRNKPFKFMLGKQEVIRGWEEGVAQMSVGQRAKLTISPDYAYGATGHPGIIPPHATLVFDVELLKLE
Procedure, shortened: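 Complex formation read as fluorescent foci: foci intensity over total per-cell intensity, imaged (×20, 9 fields/well) after fixation and Hoechst stain, giving EC50. Cells: HeLa transiently expressing hAG-mTOR and Ash-FKBP12, exposed to compound concentrations for 1 h at 37 °C.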

[2] = system: human ovarian adenocarcinoma SKOV-3 cells; assay: Cytotoxicity assay (CellTiter-Glo, 72 h), SKOV-3; format: cell-based; conditions: raw replicate data
Procedure, shortened: as §1

[3] = Cytotoxicity assay (CellTiter-Glo, 72 h), SKOV-3; format: cell-based, human; conditions: human, raw replicate data, read-out: SKOV3 viability (%)
Procedure, shortened: as §1

[4] = system: Jurkat, SKOV-3 and MESO-1 cells; assay: Cytotoxicity assay, statements for all tested cell lines together; format: cell-based; conditions: Jurkat, SKOV-3 and MESO-1 cells, 72 h
Procedure, shortened: as §1

SMILES: CO[C@H]1C[C@@H]2CC[C@@H](C)[C@@](O)(O2)C(=O)C(=O)N2CCCC[C@H]2C(=O)O[C@H]([C@H](C)C[C@@H]2CC[C@@H](O)[C@H](OC)C2)CC(=O)[C@H](C)/C=C(\C)[C@@H](O)CC[C@H](C)/C=C/C=C/C=C/1C [Compound 7]
- viability at 72 h, 9.53674e-05 uM ([1]; conc 9.53674e-5 uM): 100%
- viability at 72 h, 0.000190735 uM ([1]; conc 0.000190735 uM): 95.1%
- viability at 72 h, 0.00038147 uM ([1]; conc 0.00038147 uM): 102%
- viability at 72 h, 0.000762939 uM ([1]; conc 0.000762939 uM): 100%
- viability at 72 h, 0.00152588 uM ([1]; conc 0.00152588 uM): 105%
- viability at 72 h, 0.00305176 uM ([1]; conc 0.00305176 uM): 93.5%
- viability at 72 h, 0.00610352 uM ([1]; conc 0.00610352 uM): 96.7%
- viability at 72 h, 0.012207 uM ([1]; conc 0.012207 uM): 90.6%
- viability at 72 h, 0.0244141 uM ([1]; conc 0.0244141 uM): 98.9%
- viability at 72 h, 0.0488281 uM ([1]; conc 0.0488281 uM): 87%
- viability at 72 h, 0.0976562 uM ([1]; conc 0.0976562 uM): 67%
- viability at 72 h, 0.195312 uM ([1]; conc 0.195312 uM): 46.3%
- viability at 72 h, 0.390625 uM ([1]; conc 0.390625 uM): 36%
- viability at 72 h, 0.78125 uM ([1]; conc 0.78125 uM): 31%
- viability at 72 h, 1.5625 uM ([1]; conc 1.5625 uM): 26.7%
- viability at 72 h, 3.125 uM ([1]; conc 3.125 uM): 24.2%
- viability at 72 h, 6.25 uM ([1]; conc 6.25 uM): 24.1%
- viability at 72 h, 12.5 uM ([1]; conc 12.5 uM): 10.9%
- viability at 72 h, 25 uM ([1]; conc 25 uM): 0.741%
- viability at 72 h, 50 uM ([1]; conc 50 uM): 0.258%
- Jurkat viability (%) (T lymphoma Jurkat cells; conc 9.53674e-5 uM): 101.4% and 96.8%
- Jurkat viability (%) (T lymphoma Jurkat cells; conc 0.000190735 uM): 92.3% and 102.8%
- Jurkat viability (%) (T lymphoma Jurkat cells; conc 0.00038147 uM): 98.3% and 99.4%
- Jurkat viability (%) (T lymphoma Jurkat cells; conc 0.000762939 uM): 96.8% and 109.7%
- Jurkat viability (%) (T lymphoma Jurkat cells; conc 0.00152588 uM): 108.1% and 104.4%
- Jurkat viability (%) (T lymphoma Jurkat cells; conc 0.00305176 uM): 100.3% and 100.8%
- Jurkat viability (%) (T lymphoma Jurkat cells; conc 0.00610352 uM): 94.5% and 97.8%
- Jurkat viability (%) (T lymphoma Jurkat cells; conc 0.012207 uM): 91.0% and 94.3%
- Jurkat viability (%) (T lymphoma Jurkat cells; conc 0.0244141 uM): 98.4% and 90.4%
- Jurkat viability (%) (T lymphoma Jurkat cells; conc 0.0488281 uM): 79.8% and 78.8%
- Jurkat viability (%) (T lymphoma Jurkat cells; conc 0.0976562 uM): 64.4% and 67.9%
- Jurkat viability (%) (T lymphoma Jurkat cells; conc 0.195312 uM): 41.4% and 44.6%
- Jurkat viability (%) (T lymphoma Jurkat cells; conc 0.390625 uM): 37.3% and 37.7%
- Jurkat viability (%) (T lymphoma Jurkat cells; conc 0.78125 uM): 29.3% and 29.8%
- Jurkat viability (%) (T lymphoma Jurkat cells; conc 1.5625 uM): 28.3%
- Jurkat viability (%) (T lymphoma Jurkat cells; conc 3.125 uM): 25.8% and 24.4%
- Jurkat viability (%) (T lymphoma Jurkat cells; conc 6.25 uM): 23.0% and 23.1%
- Jurkat viability (%) (T lymphoma Jurkat cells; conc 12.5 uM): 10.5% and 12.1%
- Jurkat viability (%) (T lymphoma Jurkat cells; conc 25 uM): 0.565% and 1.0%
- Jurkat viability (%) (T lymphoma Jurkat cells; conc 50 uM): 0.186% and 0.257%
- PPI-inducing (binding enhancing) activity between FKBP12 and mTOR compared with rapamycin (1), in words (FKBP12 and mTOR; Fluoppi): much less potent than 1
- EC50 (FKBP12 and mTOR; Fluoppi, HeLa cells, 1 h treatment, three independent biological replicates, read-out: EC50, induction of the formation of FKBP-mTOR complex): 320 nM
- Foci intensity (FKBP12 and mTOR; conc 9.53674e-5 uM): 0.01546 and 0.009859 and 0.01479
- Foci intensity (FKBP12 and mTOR; conc 0.000190735 uM): 0.02291 and 0.01436 and 0.01269
- Foci intensity (FKBP12 and mTOR; conc 0.00038147 uM): 0.01763 and 0.009567 and 0.009808
- Foci intensity (FKBP12 and mTOR; conc 0.000762939 uM): 0.02965 and 0.01327 and 0.0132
- Foci intensity (FKBP12 and mTOR; conc 0.00152588 uM): 0.01988 and 0.005935 and 0.01208
- Foci intensity (FKBP12 and mTOR; conc 0.00305176 uM): 0.01996 and 0.02873 and 0.02267
- Foci intensity (FKBP12 and mTOR; conc 0.00610352 uM): 0.009728 and 0.0229 and 0.03931
- Foci intensity (FKBP12 and mTOR; conc 0.012207 uM): 0.02585 and 0.06278 and 0.01094
- Foci intensity (FKBP12 and mTOR; conc 0.0244141 uM): 0.02982 and 0.02323 and 0.02961
- Foci intensity (FKBP12 and mTOR; conc 0.0488281 uM): 0.03327 and 0.007263 and 0.02034
- Foci intensity (FKBP12 and mTOR; conc 0.0976562 uM): 0.0343 and 0.0166 and 0.04409
- Foci intensity (FKBP12 and mTOR; conc 0.195312 uM): 0.1225 and 0.05897 and 0.08613
- Foci intensity (FKBP12 and mTOR; conc 0.390625 uM): 0.2002 and 0.2003 and 0.254
- Foci intensity (FKBP12 and mTOR; conc 0.78125 uM): 0.2477 and 0.2297 and 0.3237
- Foci intensity (FKBP12 and mTOR; conc 1.5625 uM): 0.2891 and 0.3472 and 0.3016
- Foci intensity (FKBP12 and mTOR; conc 3.125 uM): 0.3418 and 0.3544 and 0.3825
- Foci intensity (FKBP12 and mTOR; conc 6.25 uM): 0.285 and 0.273 and 0.328
- Foci intensity (FKBP12 and mTOR; conc 12.5 uM): 0.2778 and 0.3903 and 0.3448
- Foci intensity (FKBP12 and mTOR; conc 25 uM): 0.3624 and 0.278 and 0.3289
- Foci intensity (FKBP12 and mTOR; conc 50 uM): 0.2714 and 0.2974 and 0.3445
- SKOV3 viability (%) ([2]; conc 9.53674e-5 uM): 108.9% and 101.6%
- SKOV3 viability (%) ([2]; conc 0.000190735 uM): 101.5% and 97.4%
- SKOV3 viability (%) ([2]; conc 0.00038147 uM): 103.2% and 103.5%
- SKOV3 viability (%) ([2]; conc 0.000762939 uM): 102.5%
- SKOV3 viability (%) ([2]; conc 0.00152588 uM): 105.1% and 100.3%
- SKOV3 viability (%) ([2]; conc 0.00305176 uM): 94.9% and 97.9%
- SKOV3 viability (%) ([2]; conc 0.00610352 uM): 104.9% and 101.4%
- SKOV3 viability (%) ([2]; conc 0.012207 uM): 92.0% and 94.0%
- SKOV3 viability (%) ([2]; conc 0.0244141 uM): 99.4% and 102.3%
- SKOV3 viability (%) ([2]; conc 0.0488281 uM): 100.8% and 88.2%
- SKOV3 viability (%) ([2]; conc 0.0976562 uM): 88.7% and 90.6%
- SKOV3 viability (%) ([2]; conc 0.195312 uM): 66.8% and 68.9%
- SKOV3 viability (%) ([2]; conc 0.390625 uM): 68.2% and 69.5%
- SKOV3 viability (%) ([2]; conc 0.78125 uM): 60.2% and 57.4%
- SKOV3 viability (%) ([2]; conc 1.5625 uM): 64.2% and 69.2%
- SKOV3 viability (%) ([2]; conc 3.125 uM): 60.4% and 56.6%
- SKOV3 viability (%) ([2]; conc 6.25 uM): 60.8% and 65.6%
- SKOV3 viability (%) ([2]; conc 12.5 uM): 53.3% and 53.4%
- SKOV3 viability (%) ([2]; conc 25 uM): 31.4% and 36.3%
- SKOV3 viability (%) ([2]; conc 50 uM): 5.9% and 7.4%
- viability at 72 h, 9.53674e-05 uM ([3]; SKOV-3 cells (ovarian adenocarcinoma), conc 9.53674e-5 uM): 101%
- viability at 72 h, 0.000190735 uM ([3]; SKOV-3 cells (ovarian adenocarcinoma), conc 0.000190735 uM): 101%
- viability at 72 h, 0.00038147 uM ([3]; SKOV-3 cells (ovarian adenocarcinoma), conc 0.00038147 uM): 98.2%
- viability at 72 h, 0.000762939 uM ([3]; SKOV-3 cells (ovarian adenocarcinoma), conc 0.000762939 uM): 98.7%
- viability at 72 h, 0.00152588 uM ([3]; SKOV-3 cells (ovarian adenocarcinoma), conc 0.00152588 uM): 101%
- viability at 72 h, 0.00305176 uM ([3]; SKOV-3 cells (ovarian adenocarcinoma), conc 0.00305176 uM): 94.8%
- viability at 72 h, 0.00610352 uM ([3]; SKOV-3 cells (ovarian adenocarcinoma), conc 0.00610352 uM): 98.4%
- viability at 72 h, 0.012207 uM ([3]; SKOV-3 cells (ovarian adenocarcinoma), conc 0.012207 uM): 96.9%
- viability at 72 h, 0.0244141 uM ([3]; SKOV-3 cells (ovarian adenocarcinoma), conc 0.0244141 uM): 94.4%
- viability at 72 h, 0.0488281 uM ([3]; SKOV-3 cells (ovarian adenocarcinoma), conc 0.0488281 uM): 92.3%
- viability at 72 h, 0.0976562 uM ([3]; SKOV-3 cells (ovarian adenocarcinoma), conc 0.0976562 uM): 88.5%
- viability at 72 h, 0.195312 uM ([3]; SKOV-3 cells (ovarian adenocarcinoma), conc 0.195312 uM): 64.9%
- viability at 72 h, 0.390625 uM ([3]; SKOV-3 cells (ovarian adenocarcinoma), conc 0.390625 uM): 75%
- viability at 72 h, 12.5 uM ([3]; SKOV-3 cells (ovarian adenocarcinoma), conc 12.5 uM): 56.1%
- viability at 72 h, 25 uM ([3]; SKOV-3 cells (ovarian adenocarcinoma), conc 25 uM): 30.8%
- viability at 72 h, 50 uM ([3]; SKOV-3 cells (ovarian adenocarcinoma), conc 50 uM): 6.6%
- viability at 72 h, 0.78125 uM ([3]; SKOV-3 ovarian adenocarcinoma cells, conc 0.78125 uM): 59.1%
- viability at 72 h, 1.5625 uM ([3]; SKOV-3 ovarian adenocarcinoma cells, conc 1.5625 uM): 62%
- viability at 72 h, 3.125 uM ([3]; SKOV-3 ovarian adenocarcinoma cells, conc 3.125 uM): 59.9%
- viability at 72 h, 6.25 uM ([3]; SKOV-3 ovarian adenocarcinoma cells, conc 6.25 uM): 61.9%
- Effect on cell viability, in words [4]: slightly suppressed the cell viabilities
